Source: patent US10610563B2, “Use of ubiquitin-proteasome system inhibitors for treatment of tumors associated with neurofibromatosis type-2” (BIOXCEL CORPORATION, priority 2014, dated 2020)

Key:
Caspase 3/7 [1] = assay: Caspase 3/7 activity (Caspase-Glo 3/7) in NF2 knockout cell line; conditions: 18 hrs
Caspase 3/7 [2] = assay: Caspase 3/7 activity (Caspase-Glo 3/7) in control haploid cells; conditions: 18 hrs
mesothelioma = assay: Treatment of mesothelioma patients carrying mutations in NF2 or BAP1 genes; assay type: in vivo; conditions: mesothelioma patients with NF2 or BAP1 mutation; 1.3 mg/m^2 intravenous bolus twice in a week, 21-d cycle, up to eight cycles
Excerpt: Mesothelioma patients can be screened for mutation(s) in any of these genes by molecular genetic testing, which is done by the mutation scanning and gene duplication/deletion testing. For example, mutation scanning is done by polymerase chain reaction amplification of the DNA of patients compared to control DNA, and DNA with altered DNA segments may be subjected to the further testing, such as sequence analysis to identify the sequence alterations. Gene duplication/deletion testing is done by quantitative polymerase chain reaction, long-range polymerase chain reaction, multiplex ligation-dependent probe amplification (MLPA), and chromosomal microarray (CMA) that includes the gene/chromosome segment for detection. Molecular genetic testing confirms about the mutation in the NF2 gene or that in the BAP1 gene. […] Bortezomib at a dose of 1.3 mg/m^2 via intravenous bolus for 3 to 5 seconds is given to patients, twice in a week for at least 2 weeks (days 1, 4, 8 and 11) of a 21-d cycle for up to eight cycles.

[3] = tested on: wild type haploid (HAP1) cells; assay: Cell proliferation/cytotoxicity assay (MTS / CellTitre Blue) in control HAP1 cell line
in vitro = conditions: human, wild type haploid (HAP1) cells
LATS1 = assay: Western blot analysis for LATS1 protein in NF2 knockout cell line; assay type: cell-based; conditions: 3, 10 & 30 nM at 18 hrs; compared to cells not treated
Protocol: Cells from NF2 knockout cell line 1293-1 cells control Haploid cell line (control wild type cells) are seeded in 6 well plates. […] LATS1 protein was assayed by Western blot (Chemiluminescence) method and both NF2 cell lines are used in the analysis. […] Cell lysates were analysed by western blotting and LATS1 was detected using anti-lats1 antibody (Abcam, ab70561); GAPDH protein levels were assayed using anti-GAPDH antibody as endogenous control. The objective was to quantify the up-regulation/down-regulation of proteins (LATS1) involved in Hippo signaling pathway in NF2 knockout cell line compared to the control cell line. Another objective is to observe the effect of bortezomib treatment in the NF2 knockout cell line, following assays using the Western Blot/WES System.

20S proteasome [4] = target: T1, 20S proteasome (Homo sapiens, UniProt P28074); assay: 20S proteasome activity (chymotrypsin-like, Suc-LLVY-AMC) in NF2 knockout cells; assay type: cell-based
Protocol: (§1) The cells were then washed in PBS (Phosphate buffered saline) and lysed in a buffer containing non-ionic detergent and ATP. The cell lysate was centrifuged at 15,000 g for 30 minutes at 4° C. The supernatant was collected, aliquoted and stored at −80° C. until assay. Chymotrypsin-like peptidase activity of 20S proteasome was measured by using 40 μM Succinyl-Leu-Leu-Val-Tyr-AMC (Boston Biochem: S-280), a fluorogenic peptide substrate, along with 12 nM of recombinant PA28α (Boston Biochem: E-381 or R&D Systems Cat. # E-381-100), in an assay buffer containing 20 mM HEPES pH 7.4 and 0.5 mM EDTA. 20S proteasome cleaved the peptide substrate to release the free fluorophore AMC. […] The compound carfilzomib was used as an internal control for the assay (NF2 cells treated with carfilzomib). Similar assay was also performed with the wild type haploid (HAP1) cells for 18 hrs at different bortezomib concentrations ranging from 1 nM to 300 nM (i.e. 1 nM, 3 nM, 10 nM, 30 nM, 100 nM and 300 nM). The reaction was monitored by measuring the fluorescence through Flex Station 3 (Molecular Devices) or Envision (PerkinElmer) (excitation/emission: 353/442 nm), for 1 hour a 37° C. under kinetic setting. Substrate turnover was estimated as a standard curve generated using standard AMC. The results of 20S proteasome assay are described in FIGS. 1, 2, 3, 4 & 5.

20S proteasome [5] = target: T1, 20S proteasome; assay: 20S proteasome activity (chymotrypsin-like, Suc-LLVY-AMC) in wild type haploid (HAP1) cells; assay type: cell-based; conditions: concentration dependent manner; 18 hrs
Protocol: as §1

[6] = tested on: NF2 knockout cell line 1293-1; assay: Cell proliferation/cytotoxicity assay (MTS / CellTitre Blue) in NF2 knockout cell line
[7] = 0.1 nM to 100 nM, 6 hrs and 12 hrs

For `CN[C@@H]1C[C@H]2O[C@@](C)([C@@H]1OC)n1c3ccccc3c3c4c(c5c6ccccc6n2c5c31)C(=O)NC4` [Staurosporine], the “apoptosis in the Caspase 3/7 assay, positive reference control, NF2 knockout cell line” value (Caspase 3/7 [1]; Staurosporine 1 & 10 μM) was “induced apoptosis was also observed” and the “apoptosis in the Caspase 3/7 assay, positive reference control, wild type haploid cell line” value (Caspase 3/7 [2]; Staurosporine 1 & 10 μM) was “induced apoptosis was also observed”.
In the case of `CC(C)C[C@H](NC(=O)[C@H](Cc1ccccc1)NC(=O)c1cnccn1)B(O)O` [bortezomib, [(1R)-3-methyl-1-({(2S)-3-phenyl-2[(pyrazin-2-ylcarbonyl)amino]propanoyl}amino)butyl]boronic acid], the “delay in tumor progression” value (mesothelioma) was 50%, the “reduction in tumor size” value (mesothelioma) was 25% and the “caspase activity (apoptosis) in the NF2 knockout cell line” value (Caspase 3/7 [1]; 3 nM onwards) was “significant increase in the caspase activity”. For the same compound, the “toxicity in the wild type haploid (HAP1) cell line (in words)” value ([3]; 6 hrs) was “did not show any significant toxicity”, the “toxicity in the wild type haploid (HAP1) cell line (in words)” value ([3]; higher concentration (>30 nM), 12, 18 & 24 hrs) was “toxicity was observed” and the cytotoxicity at 6 h, 0.1 nM (in vitro) was 2.64%. For the same compound, the cytotoxicity at 6 h, 0.3 nM (in vitro) was 4.7%, the cytotoxicity at 6 h, 1 nM (in vitro) was 5.65% and the cytotoxicity at 6 h, 3 nM (in vitro) was 1.58%. It also gave a cytotoxicity at 6 h, 10 nM (in vitro) of 0.99%, a cytotoxicity at 6 h, 30 nM (in vitro) of 7.63% and a cytotoxicity at 6 h, 60 nM (in vitro) of 9.63%. The cytotoxicity at 6 h, 100 nM (in vitro) was 6.08%, the cytotoxicity at 12 h, 0.1 nM (in vitro) was 3.91% and the cytotoxicity at 12 h, 0.3 nM (in vitro) was 2.62%. For the same compound, the cytotoxicity at 12 h, 1 nM (in vitro) was 0.2%, the cytotoxicity at 12 h, 3 nM (in vitro) was 1.1% and the cytotoxicity at 12 h, 10 nM (in vitro) was 5.12%. It also gave a cytotoxicity at 12 h, 30 nM (in vitro) of 24.9%, a cytotoxicity at 12 h, 60 nM (in vitro) of 31.9% and a cytotoxicity at 12 h, 100 nM (in vitro) of 26.9%. For the same compound, the cytotoxicity at 18 h, 0.1 nM (in vitro) was 6.83%, the cytotoxicity at 18 h, 0.3 nM (in vitro) was 6.9% and the cytotoxicity at 18 h, 1 nM (in vitro) was 5.78%. It also gave a cytotoxicity at 18 h, 3 nM (in vitro) of 7.83%, a cytotoxicity at 18 h, 10 nM (in vitro) of 7.56% and a cytotoxicity at 18 h, 30 nM (in vitro) of 26.3%. The cytotoxicity at 18 h, 60 nM (in vitro) was 31%, the cytotoxicity at 18 h, 100 nM (in vitro) was 32.7% and the cytotoxicity at 24 h, 0.1 nM (in vitro) was 11.2%. It also gave a cytotoxicity at 24 h, 0.3 nM (in vitro) of 11.4%, a cytotoxicity at 24 h, 1 nM (in vitro) of 10.9% and a cytotoxicity at 24 h, 3 nM (in vitro) of 16.6%. It also gave a cytotoxicity at 24 h, 10 nM (in vitro) of 44.8%, a cytotoxicity at 24 h, 30 nM (in vitro) of 75% and a cytotoxicity at 24 h, 60 nM (in vitro) of 77.4%. The cytotoxicity at 24 h, 100 nM (in vitro) was 78.9%, the “levels of LATS1 protein in NF2 knockout cell line (Western blot)” value (LATS1) was “increased levels of LATS1” and the “proteasome activity in the NF2 knockout cell line (dose dependence)” value (20S proteasome [4]; 1 nM to 300 nM) was “dose dependent decrease in proteasome activity”. For the same compound, the “proteasome activity in the NF2 knockout cell line” value (20S proteasome [4]; from 3 nM onwards, post 6 hrs, 12 hrs, 18 hrs and 24 hrs incubation) was “decreased significantly”, the “comparison of % inhibition in proteasome activity, NF2 knockout cells vs wild type haploid cells” value (20S proteasome [4]; post 18 hrs incubation (FIG. 5)) was “greater inhibition in the NF2 knockout cells” and the “apoptosis/Caspase 3/7 activation in the control haploid cells” value (Caspase 3/7 [2]; 3 nM onwards, compared to NF2 knockout cell line) was “minimal increase in apoptosis/Caspase 3/7 activation”. The “proteasome activity in the wild type haploid cell line” value (20S proteasome [5]) was “showed inhibition in proteasome activity”, the “cytotoxicity in the NF2 knockout cell line” value [6, 7] was 10-15% and the “cytotoxicity in the NF2 knockout cell line (in words)” value [6, 7] was “do not show any significant cytotoxicity”. The “Average % Cytotoxicity in the NF2 knockout cells” value (shortened to “Average % Cytotoxicity”) ([6]; bortezomib 0.1 nM, 6 hrs) was −5.18%, the “Average % Cytotoxicity” value ([6]; bortezomib 0.1 nM, 12 hrs) was −21.57% and the “Average % Cytotoxicity” value ([6]; bortezomib 0.1 nM, 18 hrs) was −16.92%. The “Average % Cytotoxicity” value ([6]; bortezomib 0.1 nM, 24 hrs) was −63.43%, the “Average % Cytotoxicity” value ([6]; bortezomib 0.3 nM, 6 hrs) was −5.03% and the “Average % Cytotoxicity” value ([6]; bortezomib 0.3 nM, 12 hrs) was −32.20%. The “Average % Cytotoxicity” value ([6]; bortezomib 0.3 nM, 18 hrs) was −26.59%, the “Average % Cytotoxicity” value ([6]; bortezomib 0.3 nM, 24 hrs) was −71.10% and the “Average % Cytotoxicity” value ([6]; bortezomib 1 nM, 6 hrs) was −1.49%. For the same compound, the “Average % Cytotoxicity” value ([6]; bortezomib 1 nM, 12 hrs) was −28.42%, the “Average % Cytotoxicity” value ([6]; bortezomib 1 nM, 18 hrs) was −25.10% and the “Average % Cytotoxicity” value ([6]; bortezomib 1 nM, 24 hrs) was −66.58%. For the same compound, the “Average % Cytotoxicity” value ([6]; bortezomib 3 nM, 6 hrs) was −0.78%, the “Average % Cytotoxicity” value ([6]; bortezomib 3 nM, 12 hrs) was −24.79% and the “Average % Cytotoxicity” value ([6]; bortezomib 3 nM, 18 hrs) was −19.23%. The “Average % Cytotoxicity” value ([6]; bortezomib 3 nM, 24 hrs) was −68.56%, the “Average % Cytotoxicity” value ([6]; bortezomib 10 nM, 6 hrs) was 8.10% and the “Average % Cytotoxicity” value ([6]; bortezomib 10 nM, 12 hrs) was −11.84%. The “Average % Cytotoxicity” value ([6]; bortezomib 10 nM, 18 hrs) was 14.52%, the “Average % Cytotoxicity” value ([6]; bortezomib 10 nM, 24 hrs) was 29.86% and the “Average % Cytotoxicity” value ([6]; bortezomib 30 nM, 6 hrs) was 14.05%. For the same compound, the “Average % Cytotoxicity” value ([6]; bortezomib 30 nM, 12 hrs) was 17.18%, the “Average % Cytotoxicity” value ([6]; bortezomib 30 nM, 18 hrs) was 35.71% and the “Average % Cytotoxicity” value ([6]; bortezomib 30 nM, 24 hrs) was 37.83%. For the same compound, the “Average % Cytotoxicity” value ([6]; bortezomib 60 nM, 6 hrs) was 16.44%, the “Average % Cytotoxicity” value ([6]; bortezomib 60 nM, 12 hrs) was 16.07% and the “Average % Cytotoxicity” value ([6]; bortezomib 60 nM, 18 hrs) was 38.70%. The “Average % Cytotoxicity” value ([6]; bortezomib 60 nM, 24 hrs) was 43.98%, the “Average % Cytotoxicity” value ([6]; bortezomib 100 nM, 6 hrs) was 10.89% and the “Average % Cytotoxicity” value ([6]; bortezomib 100 nM, 12 hrs) was 15.71%. The “Average % Cytotoxicity” value ([6]; bortezomib 100 nM, 18 hrs) was 39.72%, the “Average % Cytotoxicity” value ([6]; bortezomib 100 nM, 24 hrs) was 45.16% and the “toxicity in the NF2 knockout cell line (in words)” value ([6]; higher concentration (>30 nM), 18 hrs and 24 hrs) was “slight toxicity was observed”.
